Test results reported in PMC6273168, “Synthesis and Biological Evaluation of Novel 4-Morpholino-7,8-dihydro-5H-thiopyrano[4,3-d]pyrimidine Derivatives Bearing Phenylpyridine/ Phenylpyrimidine-Carboxamides” (Molecules, 2016).

How the values were obtained:
[1] = test system: A549 (human lung cancer) cell line; test: MTT cell proliferation (cytotoxicity) assay, A549; format: cell-based; settings: Homo sapiens, A549, 72 h, average of two separate determinations
Protocol: (§1) Taking GDC-0941 as reference compound, the target compounds […], 12a–j, 13a–g and 14a–g ere evaluated for the cytotoxicity against the three cancer cell lines A549, PC-3 and MCF-7 usg 3-(4,5-dimethylthiazolyl-2)-2,5-diphenyltetrazolium bromide (MTT) cell proliferation assays. In addition, one selected compounds 12h was fher evaluated for PI3Kα kinase inhibitory activity. The results, expressed as IC50 values or inhibitory rate, are sumrized in Table 1, Table 2 and Table 3.
(§2) The in vitro cytotoxic activities of all the compounds 11a–11j, 12a–12j, 13a–13g and 14a–14g was evaluated with A549, PC-3 and MCF-7 cell lines by the standard MTT assay, with GDC-0941 as positive control. The cancer cell lines were cultured in minimum essential medium (MEM) supplement with 10% fetal bovine serum (FBS). Approximately 4 × 10^3 cells, suspended in MEM medium, were plated onto each well of a 96-well plate and incubated in 5% CO2 at 37 °C for 24 h. The test compounds at indicated final concentrations were added to the culture medium and the cell cultures were continued for 72 h. Fresh MTT was added to each well at a terminal concentration of […] and incubated with cells at 37 °C for 4 h. The formazan crystals were dissolved in 100 µL DMSO each well, and the absorbency at 492 nm (for absorbance of MTT formazan) and 630 nm (for the reference wavelength) was measured with an ELISA reader. All of the compounds were tested three times in each of the cell lines. The results expressed as inhibition rates or IC50 (half-maximal inhibitory concentration) were the averages of two determinations and calculated by using the Bacus Laboratories Inc. Slide Scanner (Bliss) software (the Bacus Laboratories Inc. Slide Scanner (BLISS) system, Lombard, IL, USA).

[2] = test system: MCF-7 (human breast cancer) cell line; test: MTT cell proliferation (cytotoxicity) assay, MCF-7; format: cell-based; settings: Homo sapiens, MCF7, 72 h, average of two separate determinations
Protocol: as §1, §2

[3] = test system: PC-3 (human prostatic cancer) cell line; test: MTT cell proliferation (cytotoxicity) assay, PC-3; format: cell-based; settings: Homo sapiens, 72 h, average of two separate determinations
Protocol: as §1, §2

PI3Kα = PI3Kα (Homo sapiens, UniProt P42336); test: PI3Kα Kinase-Glo Luminescent Kinase Assay; format: biochemical
PI3Kα, sequence (P42336 whole entry): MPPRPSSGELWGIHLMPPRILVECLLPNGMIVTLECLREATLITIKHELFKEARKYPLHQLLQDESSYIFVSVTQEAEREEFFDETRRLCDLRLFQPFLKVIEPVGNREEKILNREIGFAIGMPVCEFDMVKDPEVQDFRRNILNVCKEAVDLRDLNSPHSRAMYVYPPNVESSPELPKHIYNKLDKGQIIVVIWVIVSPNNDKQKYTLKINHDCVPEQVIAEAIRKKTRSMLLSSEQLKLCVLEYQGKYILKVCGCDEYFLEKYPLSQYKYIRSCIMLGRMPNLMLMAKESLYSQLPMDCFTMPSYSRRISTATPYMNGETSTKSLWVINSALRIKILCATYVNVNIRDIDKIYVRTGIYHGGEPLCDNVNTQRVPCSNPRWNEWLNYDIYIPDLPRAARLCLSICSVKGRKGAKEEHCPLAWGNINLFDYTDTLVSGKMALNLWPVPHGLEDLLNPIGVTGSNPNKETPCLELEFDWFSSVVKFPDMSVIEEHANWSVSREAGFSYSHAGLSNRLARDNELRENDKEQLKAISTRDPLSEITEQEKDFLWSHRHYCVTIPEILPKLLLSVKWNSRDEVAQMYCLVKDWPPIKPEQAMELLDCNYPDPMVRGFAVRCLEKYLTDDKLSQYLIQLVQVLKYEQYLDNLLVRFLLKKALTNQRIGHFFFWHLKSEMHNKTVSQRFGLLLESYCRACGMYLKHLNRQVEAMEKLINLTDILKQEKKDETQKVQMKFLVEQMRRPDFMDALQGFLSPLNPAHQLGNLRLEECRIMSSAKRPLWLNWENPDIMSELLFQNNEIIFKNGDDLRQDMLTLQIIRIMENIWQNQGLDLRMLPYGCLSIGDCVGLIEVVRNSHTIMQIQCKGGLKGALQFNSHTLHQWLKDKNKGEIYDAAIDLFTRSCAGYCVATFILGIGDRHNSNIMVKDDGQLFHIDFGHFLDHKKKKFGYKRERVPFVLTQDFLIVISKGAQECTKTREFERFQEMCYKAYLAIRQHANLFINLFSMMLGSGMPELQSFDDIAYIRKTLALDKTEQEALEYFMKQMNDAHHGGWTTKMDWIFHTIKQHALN
PI3Kα, sequence (P27986 whole entry partner): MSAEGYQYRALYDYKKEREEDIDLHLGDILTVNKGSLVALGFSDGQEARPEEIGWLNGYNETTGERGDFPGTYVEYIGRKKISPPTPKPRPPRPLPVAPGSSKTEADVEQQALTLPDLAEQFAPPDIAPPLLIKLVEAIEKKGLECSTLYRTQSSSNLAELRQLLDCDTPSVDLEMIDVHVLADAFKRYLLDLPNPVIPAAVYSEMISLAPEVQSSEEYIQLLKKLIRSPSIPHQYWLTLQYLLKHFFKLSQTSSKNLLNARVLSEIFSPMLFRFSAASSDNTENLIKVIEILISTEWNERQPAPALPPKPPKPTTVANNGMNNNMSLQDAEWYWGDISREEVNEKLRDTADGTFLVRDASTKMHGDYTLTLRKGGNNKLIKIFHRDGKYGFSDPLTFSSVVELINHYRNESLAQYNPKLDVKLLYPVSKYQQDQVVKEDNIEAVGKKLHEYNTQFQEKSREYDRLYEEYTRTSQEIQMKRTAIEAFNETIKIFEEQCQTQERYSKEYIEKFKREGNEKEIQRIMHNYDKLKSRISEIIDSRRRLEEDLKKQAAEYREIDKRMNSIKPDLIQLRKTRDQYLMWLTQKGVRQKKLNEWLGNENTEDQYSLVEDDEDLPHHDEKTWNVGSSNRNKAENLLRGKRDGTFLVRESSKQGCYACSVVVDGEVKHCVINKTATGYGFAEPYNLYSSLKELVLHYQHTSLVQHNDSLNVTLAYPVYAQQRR

Compound | IC50 ([1]; Table 1) [µM] | IC50 ([2]; Table 1) [µM] | IC50 ([3]; Table 1) [µM] | IC50 (PI3Kα; Kinase-Glo, 1 µM ATP, 60 min, average of two separate determinations) [µM] | inhibitory rate against PI3Ka kinase (PI3Kα; at 10 µM, in words) | melting point [°C] | IC50 ([1]; Table 2) [µM] | IC50 ([2]; Table 2) [µM] | IC50 ([3]; Table 2) [µM]
CCc1ccc(-c2ccnc(C(=O)Nc3ccc(-c4nc5c(c(N6CCOCC6)n4)CS(=O)(=O)CC5)cc3)c2)cc1 [Compound 12h, N-(4-(4-Morpholino-7,8-dihydro-6,6-dioxide-5H-thiopyrano[4,3-d]pyrimidin-2-yl)phenyl)-4-(4-ethylphenyl) picolinamide] | 8.37 ± 0.1 | 9.26 ± 0.82 | 11.34 ± 0.11 | 7.39 ± 0.194 | moderate | 276.8 to 279.1 |  |  | 
COc1ccc(-c2cc(C(=O)Nc3ccc(-c4nc5c(c(N6CCOCC6)n4)CSCC5)cc3)ncn2)cc1 [Compound 13b] |  |  |  |  |  | 210 to 212.7 | > 100 | > 100 | > 100
COc1ccc(-c2ccnc(C(=O)Nc3ccc(-c4nc5c(c(N6CCOCC6)n4)CSCC5)cc3)c2)cc1 [Compound 11i, N-(4-(4-Morpholino-7,8-dihydro-5H-thiopyrano[4,3-d]pyrimidin-2-yl)phenyl)-4-(4methoxyphenyl) pyridine-carboxamide] | 27.68 ± 0.1 | 32.4 ± 1.84 | 65.66 ± 0.61 |  |  | 233.6 to 235.1 |  |  | 
COc1ccc(-c2cc(C(=O)Nc3ccc(-c4nc5c(c(N6CCOCC6)n4)CS(=O)(=O)CC5)cc3)ncn2)cc1 [Compound 14b] |  |  |  |  |  | 277 to 279.5 | > 100 | 89.6 ± 0.91 | > 100
Cc1ccc(-c2ccnc(C(=O)Nc3ccc(-c4nc5c(c(N6CCOCC6)n4)CS(=O)(=O)CC5)cc3)c2)cc1 [Compound 12g, N-(4-(4-Morpholino-7,8-dihydro-6,6-dioxide-5H-thiopyrano[4,3-d]pyrimidin-2-yl)phenyl)-4-(4-methylphenyl) pyridinecarboxamide] | 14.51 ± 0.1 | 28.9 ± 1.29 | 64.71 ± 0.17 |  |  | 290.2 to 293.1 |  |  | 
O=C(Nc1ccc(-c2nc3c(c(N4CCOCC4)n2)CSCC3)cc1)c1cc(-c2ccc(Cl)cc2)ncn1 [Compound 13f] |  |  |  |  |  | 281.8 to 285 | > 100 | > 100 | > 100
O=C(Nc1ccc(-c2nc3c(c(N4CCOCC4)n2)CS(=O)(=O)CC3)cc1)c1cc(-c2ccc(Br)cc2)ncn1 [Compound 14e] |  |  |  |  |  | > 300 | > 100 | 27.4 ± 1.27 | > 100
O=C(Nc1ccc(-c2nc3c(c(N4CCOCC4)n2)CS(=O)(=O)CC3)cc1)c1cc(-c2ccccc2)ncn1 [Compound 14g] |  |  |  |  |  | 294.2 to 296.6 | > 100 | > 100 | > 100
